Data as given in the NIST ThermoML archive (doi:10.1016/j.fluid.2019.06.022).
Several values for one entry are separate records, joined by “and”; a condition that tells them apart may be missing. Equal entries are not always repeated. Numbers after ± are expanded uncertainties.

Assay: xn = mol fraction of the nth substance listed
Settings: Liquid; for mass density: Bellows volumetry; for viscosity: Falling or rolling sphere viscometry

C=CC [propene] + Cc1ccccc1
Settings | mass density, x1 = 0.0787 [kg/m3] | mass density, x1 = 0.3073 [kg/m3] | viscosity, x1 = 0.0787 | viscosity, x1 = 0.3073
294.8 K, 16200 kPa | 839.2 ± 20 | – | 0.656 ± 0.027 mPa·s and 0.638 ± 0.026 mPa·s | –
294.8 K, 27900 kPa | 847.6 ± 20 | – | 0.7 ± 0.029 mPa·s and 0.696 ± 0.028 mPa·s | –
294.8 K, 28000 kPa | 847.6 ± 20 | – | 0.689 ± 0.028 mPa·s | –
294.8 K, 28100 kPa | 847.6 ± 20 | – | 0.696 ± 0.028 mPa·s | –
294.8 K, 28200 kPa | 849.8 ± 20 | – | 0.694 ± 0.028 mPa·s and 0.693 ± 0.028 mPa·s | –
294.8 K, 40900 kPa | 855.9 ± 20 | – | 0.77 ± 0.031 mPa·s and 0.772 ± 0.032 mPa·s | –
294.8 K, 56200 kPa | 864.7 ± 21 | – | 0.856 ± 0.035 mPa·s | –
294.8 K, 56300 kPa | 864.7 ± 21 | – | 0.854 ± 0.035 mPa·s | –
297.5 K, 3700 kPa | – | 753 ± 18 | – | 0.356 ± 0.015 mPa·s and 0.355 ± 0.015 mPa·s
297.5 K, 10800 kPa | – | 759 ± 18 | – | 0.371 ± 0.015 mPa·s
297.5 K, 10900 kPa | – | 759 ± 18 | – | 0.363 ± 0.015 mPa·s
297.5 K, 20700 kPa | – | 766.9 ± 18 | – | 0.399 ± 0.016 mPa·s and 0.4 ± 0.016 mPa·s
297.5 K, 21200 kPa | – | 767.5 ± 18 | – | 0.408 ± 0.017 mPa·s and 0.412 ± 0.017 mPa·s
297.5 K, 30500 kPa | – | 774.9 ± 19 | – | 0.439 ± 0.018 mPa·s
297.5 K, 30600 kPa | – | 774.9 ± 19 | – | 0.44 ± 0.018 mPa·s
297.5 K, 30700 kPa | – | 774.9 ± 19 | – | 0.431 ± 0.018 mPa·s and 0.433 ± 0.018 mPa·s
297.5 K, 48400 kPa | – | 787.8 ± 19 | – | 0.491 ± 0.02 mPa·s
297.5 K, 48500 kPa | – | 787.8 ± 19 | – | 0.49 ± 0.02 mPa·s
297.5 K, 69000 kPa | – | 800.9 ± 19 | – | 0.555 ± 0.023 mPa·s
297.5 K, 69100 kPa | – | 800.9 ± 19 | – | 0.552 ± 0.023 mPa·s
323.1 K, 3300 kPa | – | 728.4 ± 18 | – | 0.276 ± 0.011 mPa·s
323.1 K, 3700 kPa | – | 728.4 ± 18 | – | 0.277 ± 0.011 mPa·s
323.1 K, 10200 kPa | – | 736.3 ± 18 | – | 0.294 ± 0.012 mPa·s
323.1 K, 11000 kPa | – | 736.3 ± 18 | – | 0.295 ± 0.012 mPa·s
323.1 K, 21100 kPa | – | 747.5 ± 18 | – | 0.319 ± 0.013 mPa·s
323.1 K, 21200 kPa | – | 747.5 ± 18 | – | 0.316 ± 0.013 mPa·s
323.1 K, 35000 kPa | – | 758.2 ± 18 | – | 0.363 ± 0.015 mPa·s
323.1 K, 35100 kPa | – | 758.2 ± 18 | – | 0.36 ± 0.015 mPa·s and 0.352 ± 0.014 mPa·s
323.1 K, 35200 kPa | – | 758.2 ± 18 | – | 0.35 ± 0.014 mPa·s
323.1 K, 48500 kPa | – | 768.2 ± 18 | – | 0.389 ± 0.016 mPa·s and 0.385 ± 0.016 mPa·s
323.1 K, 68900 kPa | – | 782.5 ± 19 | – | 0.441 ± 0.018 mPa·s and 0.442 ± 0.018 mPa·s
325.2 K, 7100 kPa | 808.6 ± 19 | – | 0.423 ± 0.017 mPa·s | –
325.2 K, 7400 kPa | 808.6 ± 19 | – | 0.421 ± 0.017 mPa·s | –
325.2 K, 13900 kPa | 814.5 ± 20 | – | 0.435 ± 0.018 mPa·s | –
325.2 K, 14200 kPa | 814.2 ± 20 | – | 0.44 ± 0.018 mPa·s | –
325.2 K, 20600 kPa | 819.6 ± 20 | – | 0.468 ± 0.019 mPa·s and 0.467 ± 0.019 mPa·s | –
325.2 K, 26900 kPa | 824.5 ± 20 | – | 0.493 ± 0.02 mPa·s | –
325.2 K, 27100 kPa | 824.5 ± 20 | – | 0.495 ± 0.02 mPa·s | –
325.2 K, 40500 kPa | 833.6 ± 20 | – | 0.543 ± 0.022 mPa·s and 0.534 ± 0.022 mPa·s | –
325.2 K, 40700 kPa | 833.6 ± 20 | – | 0.542 ± 0.022 mPa·s and 0.533 ± 0.022 mPa·s | –
325.2 K, 51500 kPa | 840.7 ± 20 | – | 0.58 ± 0.024 mPa·s | –
325.2 K, 51600 kPa | 840.7 ± 20 | – | 0.584 ± 0.024 mPa·s and 0.589 ± 0.024 mPa·s | –
325.2 K, 51900 kPa | 840.7 ± 20 | – | 0.583 ± 0.024 mPa·s | –
325.2 K, 67700 kPa | 850.9 ± 20 | – | 0.644 ± 0.026 mPa·s | –
325.2 K, 67900 kPa | 850.9 ± 20 | – | 0.645 ± 0.026 mPa·s | –
325.2 K, 68000 kPa | 850.9 ± 20 | – | 0.645 ± 0.026 mPa·s and 0.661 ± 0.027 mPa·s | –
373.4 K, 3400 kPa | – | 677.6 ± 16 | – | 0.179 ± 0.007 mPa·s
373.4 K, 3500 kPa | – | 677.6 ± 16 | – | 0.177 ± 0.007 mPa·s
373.4 K, 6700 kPa | – | 682.7 ± 16 | – | 0.185 ± 0.008 mPa·s
373.4 K, 6800 kPa | – | 682.7 ± 16 | – | 0.186 ± 0.008 mPa·s
373.4 K, 17500 kPa | – | 697.6 ± 17 | – | 0.206 ± 0.008 mPa·s and 0.207 ± 0.008 mPa·s
373.4 K, 27500 kPa | – | 710.3 ± 17 | – | 0.225 ± 0.009 mPa·s
373.4 K, 27700 kPa | – | 710.2 ± 17 | – | 0.224 ± 0.009 mPa·s
373.4 K, 39100 kPa | – | 722.7 ± 17 | – | 0.244 ± 0.01 mPa·s
373.4 K, 39200 kPa | – | 722.7 ± 17 | – | 0.243 ± 0.01 mPa·s
373.4 K, 39300 kPa | – | 722.7 ± 17 | – | 0.246 ± 0.01 mPa·s
373.4 K, 39600 kPa | – | 722.7 ± 17 | – | 0.247 ± 0.01 mPa·s
373.4 K, 54700 kPa | – | 737.2 ± 18 | – | 0.27 ± 0.011 mPa·s
373.4 K, 54800 kPa | – | 737.2 ± 18 | – | 0.271 ± 0.011 mPa·s
373.4 K, 69000 kPa | – | 748.6 ± 18 | – | 0.297 ± 0.012 mPa·s
373.4 K, 69100 kPa | – | 748.6 ± 18 | – | 0.296 ± 0.012 mPa·s
376.9 K, 2400 kPa | 759.5 ± 18 | – | 0.252 ± 0.01 mPa·s | –
